From patent publication US20140163083A1, “NOVEL CRYSTALLINE SALTS OF ASENAPINE” (SANDOZ AG, priority 2011, published 2014)
Counter-ions that a name gives are not always drawn.

Columns and labels:
[1] = Saturated solution of the maleate salt (Funke et al., literature); format: physicochemical; settings: water, thermodynamic from solid; translated from saturated solution of the maleate at 23° C., pH=4.4; read-out: free base solubility
[2] = 23° C., pH=4.4; cited from earlier work
[3] = Hygroscopic nature by dynamic vapor sorption; format: physicochemical; settings: relative humidities greater than about 20%
Description: The hygroscopic nature of the succinate salt hemihydrate was investigated by dynamic vapor sorption.

Row | solubility [1] [µg/mL] | water content by dynamic vapor sorption [3] [%] | Molecule | concentration of saturated solution [2] [µg/mL]
1 | ~4100 |  | CN1C[C@@H]2c3ccccc3Oc3ccc(Cl)cc3[C@H]2C1 (relative stereo) [maleate salt of Asenapine, trans-5-chloro-2-methyl-2,3,3a,12b-tetrahydro-1H-dibenz[2,3:6,7]oxepino[4,5-c]pyrrole] | 5800
2 |  | 2 to 2.5 | Asenapine succinate form I [succinate salt hemihydrate] | 
